Results taken from patent US20180206491A1, “SUBSTITUTED CYCLIC ARYL AND HETEROARYL CARBOXYLIC ACID HYDRAZIDES OR SALTS THEREOF AND USE THEREOF TO INCREASE STRESS TOLERANCE IN PLANTS” (Bayer CropScience Aktiengesellschaft, priority 2015, published 2018).

Assays:
Triticum aestivum [1] = test: In vivo analyses Part B: drought stress, appearance versus stressed control plants in categories; set-up: key: 0: no positive effect; +: slight positive effect; ++: clear positive effect; +++: strong positive effect; details: spray application
Description: (§1) Seeds of monocotyledonous and dicotyledonous crop plants were sown in sandy loam in plastic pots, covered with soil or sand and cultivated in a greenhouse under good growth conditions. The test plants are treated at the early leaf stage (BBCH10-BBCH13). To assure uniform water supply before commencement of stress, the potted plants were supplied with water by dam irrigation prior to substance application. The inventive compounds were first formulated as wettable powders (WP) or dissolved in a solvent mixture. The further dilution was effected with water supplemented with 0.2% wetting agent (e.g. agrotin). The finished spray liquor was sprayed onto the green parts of the plant at an equivalent water application rate of 600 l/ha. Substance application was followed immediately by stress treatment of the plants. Drought stress was induced by gradual drying out under the following conditions: “Day”: 14 hours with illumination at ˜26-30° C. “Night”: 10 hours without illumination at ˜18-20° C. The duration of the respective stress phases was guided mainly by the condition of the stressed control plants. It was ended (by re-irrigating and transfer to a greenhouse with good growth conditions) as soon as irreversible damage was observed on the stressed control plants. The end of the stress phase was followed by an about 4-7-day recovery phase, during which the plants were once again kept under good growth conditions in a greenhouse. The duration of the recovery phase was guided mainly by when the trial plants had attained a state which enabled visual scoring of potential effects, and was therefore variable. Once this juncture had been reached, the appearance of the plants treated with test substances was recorded in comparison to the stressed control plants by the following categories: • 0 no positive effect • + slight positive effect • ++ clear positive effect • +++ strong positive effect In order to rule out any influence on the effects observed by any fungicidal or insecticidal action of the test compounds, it was additionally ensured that the tests proceeded without fungal infection or insect infestation. The values reported in tables B-1 and B-2 below are mean values of the results from at least three repeats. Effects of selected compounds of the general formula (I) under drought stress according to the following tables B-1 and B-2: […]

Brassica napus [2] = test: as above; set-up: key: 0: no positive effect; +: slight positive effect; ++: clear positive effect; +++: strong positive effect; details: spray application
Description: as §1

Zea mays = test: In vivo analyses: drought stress, visual scoring of damage, efficacy EF; details: spray application, 250 g/ha
Description: (§2) Seeds of monocotyledonous and dicotyledonous crop plants were sown in sandy loam in wood-fiber or plastic pots, covered with soil or sand and cultivated in a greenhouse under good growth conditions. The trial plants were treated at the early leaf stage (BBCH10-BBCH13). To assure uniform water supply before commencement of stress, the potted plants were supplied with water by dam irrigation prior to substance application. The inventive compounds formulated in the form of wettable powders (WP) were sprayed onto the green parts of the plants as an aqueous suspension at an equivalent water application rate of 600 I/ha with addition of 0.2% wetting agent (e.g. agrotin). Substance application was followed immediately by stress treatment of the plants. For this purpose, the wood-fiber pots were transferred in plastic inserts in order to prevent them from subsequently drying out too quickly. Drought stress was induced by gradual drying out under the following conditions: “Day”: 14 hours with illumination at ˜26-30° C. “Night”: 10 hours without illumination at ˜18-20° C. The duration of the respective stress phases was guided mainly by the condition of the stressed control plants. It was ended (by re-irrigating and transfer to a greenhouse with good growth conditions) as soon as irreversible damage was observed on the stressed control plants. The end of the stress phase was followed by an about 4-7-day recovery phase, during which the plants were once again kept under good growth conditions in a greenhouse. The duration of the recovery phase was guided mainly by when the trial plants had attained a state which enabled visual scoring of potential effects, and is therefore variable. Once this juncture was reached, the intensities of damage were scored visually in comparison to untreated, unstressed controls of the same age. The damage intensity was at first assessed in percent. These values were then used to calculate the efficacy of the test compounds by the following formula: [formula] EF: Efficacy DIs: Damage intensity of the stressed control plants DIt: Damage intensity of the stressed plants treated with test compound The values reported in tables A-1 to A-3 below are mean values from at least one trial with at least two repeats, showing the effects of selected compounds of the general formula (I) under drought stress on various crop plants.

Brassica napus [3] = test: as above; details: spray application
Description: as §2

Triticum aestivum [4] = test: as above; details: spray application, 25 g/ha
Description: as §2

Structure (SMILES) | Effect (TRZAS) (Triticum aestivum [1]; 250 g/ha) | Effect (BRSNS) (Brassica napus [2]; 250 g/ha) | other results
CN1CCN(N(Cc2ccccc2C#N)C(=O)c2cnccc2C(F)(F)F)CC1 [B6-61] | + |  | 
O=C(c1ccccc1Cl)N(Cc1ccc(Cl)nc1)N1CCCC1 [A7-94] |  |  | Effect (TRZAS) (Triticum aestivum [1]; 25 g/ha): +
CN1CCN(N(Cc2nccc(Cl)c2Cl)C(=O)c2ccccc2C(F)(F)F)CC1 [A12-40] |  | + | Effect (TRZAS) (Triticum aestivum [1]; 25 g/ha): +
CN1CCN(N(Cc2ccccn2)C(=O)c2cnccc2C(F)(F)F)CC1 [B6-21] | + | + | 
O=C(c1cnccc1C(F)(F)F)N(Cc1ccccn1)N1CCOCC1 [B5-21] |  | + | 
O=C(c1ccccc1C(F)(F)F)N(Cc1ccc(F)cc1F)N1CCCC1 [A2-15] | + | + | 
O=C(c1cnccc1C(F)(F)F)N(Cc1ncc(C(F)(F)F)cc1Cl)N1CCCC1 [B2-36] |  | + | Effect (TRZAS) (Triticum aestivum [1]; 25 g/ha): +
O=C(c1cnccc1C(F)(F)F)N(Cc1ccc(F)cc1F)N1CCCC1 [B2-15] | + |  | 
COC1CCCN(N(Cc2ccccc2Cl)C(=O)c2cnccc2C(F)(F)F)C1 (stereo not shown) [B7-1] |  |  | Effect (TRZAS) (Triticum aestivum [1]; 25 g/ha): ++
O=C(c1ccc(Cl)cc1Cl)N(Cc1ccc(F)cc1F)N1CCCC1 [A8-15] |  |  | Effect (TRZAS) (Triticum aestivum [1]; 25 g/ha): +
CN1CCN(N(Cc2ccccc2Cl)C(=O)c2cnccc2C(F)(F)F)CC1 [B6-1] | + |  | 
COC1CCN(N(Cc2ccccn2)C(=O)c2ccccc2C(F)(F)F)C1 (stereo not shown) [A3-21, N-(3-Methoxypyrrolidin-1-yl)-N-(pyridin-2-ylmethyl)-2-(trifluoromethyl)benzamide] |  |  | EF [%] (ZEAMX) (Zea mays): >5%
COC1CCCN(N(Cc2cccc(Cl)c2)C(=O)c2ccncc2)C1 (stereo not shown) [C8-2] |  |  | EF [%] (BRSNS) (Brassica napus [3]; 250 g/ha): >5%
N#Cc1ccccc1CN(C(=O)c1cnccc1C(F)(F)F)N1CCOCC1 [B5-61, N-(2-Cyanobenzyl)-N-(morpholin-4-yl)-4-(trifluoromethyl)-nicotinamide] | + | + | 
CN1CCN(N(Cc2ccccc2C#N)C(=O)c2ccncc2)CC1 [C6-61] |  |  | EF [%] (BRSNS) (Brassica napus [3]; 2.5 g/ha): >5%; EF [%] (TRZAS) (Triticum aestivum [4]): >5%
CN1CCN(N(Cc2ccccc2Cl)C(=O)c2ccccc2C(F)(F)F)CC1 [A12-1] | + |  | 
COC1CCCN(N(Cc2ccccn2)C(=O)c2cnccc2C(F)(F)F)C1 (stereo not shown) [B7-21] |  |  | Effect (BRSNS) (Brassica napus [2]; 25 g/ha): +
O=C(c1ccc(Cl)c(Cl)c1)N(Cc1cc(Cl)ccc1Cl)N1CCCC1 [A5-6] |  |  | EF [%] (ZEAMX) (Zea mays): >5%
COC1CCCN(N(Cc2ccccc2C#N)C(=O)c2ccccc2C(F)(F)F)C1 (stereo not shown) [A13-61] |  |  | Effect (BRSNS) (Brassica napus [2]; 25 g/ha): +
